From the supplement of paper PMC13380429

Legend:
Conditions in all cases: 72 h
Caco-2 [1] = assay: cell viability relative to DMSO; higher = less toxic
Calu-3 [2] = assay: as above
HepG2 [3] = assay: as above
U2OS [4] = assay: as above
Vero E6 [5] = assay: as above
Caco-2 [6] = assay: relative viability EC50 (midpoint between 100% and the lowest measured viability); higher = less toxic
Calu-3 [7] = assay: as above
HepG2 [8] = assay: as above
U2OS [9] = assay: as above
Vero E6 [10] = assay: as above
Caco-2 [11] = assay: drug sensitivity score (DSS) for viability; higher = more toxic; extreme values may be limits of the assay
Calu-3 [12] = assay: as above
HepG2 [13] = assay: as above
U2OS [14] = assay: as above
Vero E6 [15] = assay: as above

Compound	cell viability (Caco-2 [1]; 1 nM)	cell viability (Caco-2 [1]; 10 nM)	cell viability (Caco-2 [1]; 100 nM)	cell viability (Caco-2 [1]; 1000 nM)	cell viability (Caco-2 [1]; 10000 nM)	cell viability (Calu-3 [2]; 1 nM)	cell viability (Calu-3 [2]; 10 nM)	cell viability (Calu-3 [2]; 100 nM)	cell viability (Calu-3 [2]; 1000 nM)	cell viability (Calu-3 [2]; 10000 nM)	cell viability (HepG2 [3]; 1 nM)	cell viability (HepG2 [3]; 10 nM)	cell viability (HepG2 [3]; 100 nM)	cell viability (HepG2 [3]; 1000 nM)	cell viability (HepG2 [3]; 10000 nM)	cell viability (U2OS [4]; 1 nM)	cell viability (U2OS [4]; 10 nM)	cell viability (U2OS [4]; 100 nM)	cell viability (U2OS [4]; 1000 nM)	cell viability (U2OS [4]; 10000 nM)	cell viability (Vero E6 [5]; 1 nM)	cell viability (Vero E6 [5]; 10 nM)	cell viability (Vero E6 [5]; 100 nM)	cell viability (Vero E6 [5]; 1000 nM)	cell viability (Vero E6 [5]; 10000 nM)	relative viability EC50 (Caco-2 [6])	relative viability EC50 (Calu-3 [7])	relative viability EC50 (HepG2 [8])	relative viability EC50 (U2OS [9])	relative viability EC50 (Vero E6 [10])	drug sensitivity score (Caco-2 [11])	drug sensitivity score (Calu-3 [12])	drug sensitivity score (HepG2 [13])	drug sensitivity score (U2OS [14])	drug sensitivity score (Vero E6 [15])
NC(=O)c1ncn([C@@H]2O[C@H](CO)[C@@H](O)[C@H]2O)c1O [mizoribine]	93.8%	97.7%	94.7%	97.1%	97.6%	104%	101%	95.3%	102%	88.4%	112%	100%	110%	96.2%	106%	101%	103%	99.6%	96.3%	99.1%	101%	103%	99.1%	97.8%	101%	> 10 µM	> 10 µM	> 10 µM	> 10 µM	> 10 µM	0	0	0	0	0
CCOc1cc(N)c(Cl)cc1C(=O)NCC1CN(Cc2ccc(F)cc2)CCO1 (stereo not given) [mosapride]	89.6%	93.4%	99.9%	96.1%	100%	95.7%	87.4%	105%	97.6%	106%	95.4%	99.7%	98.8%	98.3%	101%	101%	95.9%	99%	95.9%	103%	99.1%	102%	101%	94.5%	98.3%	> 10 µM	> 10 µM	> 10 µM	> 10 µM	> 10 µM	0	0	0	0	0
N=C(N)Nc1ccc(C(=O)Oc2ccc3cc(C(=N)N)ccc3c2)cc1 [nafamostat]	101%	100%	98.8%	92.4%	107%	98.3%	103%	107%	103%	99.4%	96.5%	108%	104%	108%	77.1%	102%	99.4%	102%	97.6%	102%	99.7%	103%	104%	102%	97%	> 10 µM	> 10 µM	> 10 µM	> 10 µM	> 10 µM	0	0	0.5	0	0
O=C(O)c1cccnc1 [niacin]	91.6%	96.7%	94.2%	103%	103%	86.8%	103%	98.9%	109%	99.2%	113%	105%	114%	97.9%	106%	93.8%	98.2%	95.3%	97.1%	102%	99.4%	98.7%	96.3%	91.1%	101%	> 10 µM	> 10 µM	> 10 µM	> 10 µM	> 10 µM	0	0	0	0	0
Cc1onc(-c2ccccc2)c1C(=O)N[C@@H]1C(=O)N2[C@@H]1SC(C)(C)[C@@H]2C(=O)O [oxacillin]	92.9%	93.3%	98.1%	85.2%	116%	92.6%	104%	102%	99.1%	96.2%	89.9%	102%	91.3%	114%	108%	100%	98.7%	98%	98.9%	108%	99.4%	87.2%	102%	93.9%	94%	> 10 µM	> 10 µM	> 10 µM	> 10 µM	> 10 µM	0	0	0	0	0
O=C(O)c1nc(=O)[nH]c(=O)[nH]1 [oxonic-acid]	87.9%	76.3%	89.9%	112%	101%	94.6%	106%	105%	110%	108%	105%	103%	97.4%	115%	101%	102%	101%	99.6%	102%	106%	89.2%	63.8%	98.5%	79.8%	90.7%	> 10 µM	> 10 µM	> 10 µM	> 10 µM	> 10 µM	0	0	0	0	0
CC(=O)Nc1ccc(O)cc1 [paracetamol]	91.7%	103%	94.7%	98.2%	98.8%	94.7%	96.6%	97.2%	99.8%	99%	99.5%	104%	88.8%	94.3%	92.5%	99.9%	101%	95.4%	102%	93.7%	97.9%	95.4%	102%	92.5%	102%	> 10 µM	> 10 µM	> 10 µM	> 10 µM	> 10 µM	0	0	0.6	0	0
Oc1ccc(Cl)cc1 [parachlorophenol]	94.2%	91.5%	99.7%	90.4%	100%	102%	100%	98.9%	91.2%	104%	108%	99.1%	90.9%	111%	98.4%	98.5%	96.5%	97.2%	95.4%	102%	100%	101%	99.3%	97.7%	99.7%	> 10 µM	> 10 µM	> 10 µM	> 10 µM	> 10 µM	0	0	0	0	0
CCCCCCCCCCCCCC[C@@H](O)[C@@H](O)[C@@H](N)CO [phytosphingosine]	115%	102%	87.3%	113%	99.5%	103%	101%	98.6%	82.3%	103%	91%	92.7%	112%	100%	97.9%	101%	100%	98.9%	102%	98.3%	98.7%	98.2%	95.9%	111%	95.2%	> 10 µM	> 10 µM	> 10 µM	> 10 µM	> 10 µM	0	0	0	0	0
c1cc(CN2CCCNCCNCCCNCC2)ccc1CN1CCCNCCNCCCNCC1 [plerixafor]	101%	96.1%	97.5%	101%	95.2%	90.7%	104%	97.3%	94.4%	105%	92.9%	104%	88.4%	106%	96.5%	101%	99.8%	97.9%	97.2%	98.1%	104%	99.1%	104%	101%	100%	> 10 µM	> 10 µM	> 10 µM	> 10 µM	> 10 µM	0	0	0	0	0
CC(=O)Oc1cc2c(s1)CCN(C(C(=O)C1CC1)c1ccccc1F)C2 (stereo not given) [prasugrel]	102%	101%	93%	105%	94.1%	101%	103%	102%	97.3%	106%	105%	95%	106%	103%	93.3%	104%	98%	102%	97.9%	98.8%	100%	93.6%	96.2%	96.2%	93.2%	> 10 µM	> 10 µM	> 10 µM	> 10 µM	> 10 µM	0	0	0	0	0
